Kd data for two molecules are collected here from paper doi:10.1101/2025.07.09.663820v1 (biorxiv, 2025).

Common to all, as to test: isothermal titration calorimetry
Common to all, as to format: binding
Background: In ITC the heat of successive injections is recorded.

One test addresses T1, LYR4 (Medicago truncatula, UniProt G7K7K0).
T1 sequence (G7K7K0 24-242): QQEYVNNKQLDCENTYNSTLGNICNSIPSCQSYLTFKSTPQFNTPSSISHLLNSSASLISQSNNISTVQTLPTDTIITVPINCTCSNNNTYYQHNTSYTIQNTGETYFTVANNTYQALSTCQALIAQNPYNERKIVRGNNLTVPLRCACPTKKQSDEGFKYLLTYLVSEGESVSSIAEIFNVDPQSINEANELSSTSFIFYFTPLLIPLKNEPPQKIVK
The following applies: ectodomain.

The target of another test is T2, CERK6 (Lotus japonicus, UniProt D3KTZ6).
T2 sequence (D3KTZ6 26-223): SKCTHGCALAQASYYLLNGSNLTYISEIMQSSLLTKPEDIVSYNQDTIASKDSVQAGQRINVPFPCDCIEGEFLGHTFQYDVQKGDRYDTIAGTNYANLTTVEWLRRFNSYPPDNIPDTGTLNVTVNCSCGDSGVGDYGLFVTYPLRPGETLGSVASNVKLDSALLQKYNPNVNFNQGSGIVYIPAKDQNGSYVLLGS
The following applies: read-out: affinity; ectodomain; crystal structure: CO5 in LysM1 and LysM2.

Another test deals with T3, MtCERK1 (Medicago truncatula, UniProt G7J6P5).
T3 sequence (G7J6P5 30-232): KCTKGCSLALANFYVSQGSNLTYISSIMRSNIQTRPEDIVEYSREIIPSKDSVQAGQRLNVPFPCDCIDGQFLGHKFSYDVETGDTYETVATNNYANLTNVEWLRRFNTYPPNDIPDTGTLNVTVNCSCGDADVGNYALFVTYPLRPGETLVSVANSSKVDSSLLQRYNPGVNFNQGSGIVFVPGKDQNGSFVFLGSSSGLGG
The following applies: read-out: affinity; ectodomain.

Test [1] deals with T4, CHIP13 (Lotus japonicus, UniProt D3KU00).
T4 sequence (D3KU00 33-253): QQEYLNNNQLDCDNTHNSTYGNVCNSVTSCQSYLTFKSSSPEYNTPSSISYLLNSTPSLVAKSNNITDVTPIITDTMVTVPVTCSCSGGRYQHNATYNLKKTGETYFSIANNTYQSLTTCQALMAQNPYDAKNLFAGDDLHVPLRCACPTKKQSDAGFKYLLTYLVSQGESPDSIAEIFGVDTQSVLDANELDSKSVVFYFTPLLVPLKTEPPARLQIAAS
The following applies: ectodomain.

The target in test [2] is T5, CHIP13 (Lotus japonicus, UniProt D3KU00, Y232A/F233A).
T5 sequence (D3KU00 33-253 Y232A/F233A): T4 sequence (D3KU00 33-253) with Y200A, F201A
The following applies: ectodomain variant.

Residue numbers refer to the chain shown, from its start.

Consider `CC(=O)N[C@H]1[C@H](O[C@H]2[C@H](O)[C@@H](NC(C)=O)[C@H](O[C@H]3[C@H](O)[C@@H](NC(C)=O)C(O)O[C@@H]3CO)O[C@@H]2CO)O[C@H](CO)[C@@H](O[C@@H]2O[C@H](CO)[C@@H](O[C@@H]3O[C@H](CO)[C@@H](O)[C@H](O)[C@H]3NC(C)=O)[C@H](O)[C@H]2NC(C)=O)[C@@H]1O` (stereo partly shown) [CO5, penta-N-acetyl-chitopentaose], for which the Kd came to 96 µM on LYR4, 2800 µM on CERK6, 729 µM at MtCERK1 and 1270 µM on CHIP13 [1].
In the case of `CC(=O)N[C@H]1[C@H](O[C@H]2[C@H](O)[C@@H](NC(C)=O)[C@H](O[C@H]3[C@H](O)[C@@H](NC(C)=O)[C@H](O[C@H]4[C@H](O)[C@@H](NC(C)=O)C(O)O[C@@H]4CO)O[C@@H]3CO)O[C@@H]2CO)O[C@H](CO)[C@@H](O[C@@H]2O[C@H](CO)[C@@H](O[C@@H]3O[C@H](CO)[C@@H](O[C@@H]4O[C@H](CO)[C@@H](O[C@@H]5O[C@H](CO)[C@@H](O)[C@H](O)[C@H]5NC(C)=O)[C@H](O)[C@H]4NC(C)=O)[C@H](O)[C@H]3NC(C)=O)[C@H](O)[C@H]2NC(C)=O)[C@@H]1O` (stereo partly shown) [CO8, octa-N-acetyl-chitooctaose], the Kd came out at 1.92 µM at LYR4; 0.9 µM on CHIP13 [1] (crystal structure at 1.35 Å: LysM2, LysM3 and bridge domain site); 107 ± 80 µM at CHIP13 [2].
